Bridge positions count the residues as written; N and C are the ends. Square brackets hold non-standard residues; d marks the D form. Peptide text beside a SMILES is read from it. * marks the point of attachment. 5TAMRA = CN(C)c1ccc2c(c1)Oc1cc(N(C)C)ccc1C21OC(=O)c2cc(C(=O)*)ccc21; 2Nal = N[C@@H](Cc1ccc2ccccc2c1)C(=O)O; Pen = CC(C)(S)[C@H](N)C(=O)O; Aib = CC(C)(N)C(=O)O
Biological target: T1, C115Y mutated IL23R (Homo sapiens, UniProt P42701+Q5VWK5, C115Y)
T1 construct: expressed in transfected cells; host or cells: HEK293T, transient transfection
T1 sequence (Q5VWK5 24-629 C115Y, other chains not shown): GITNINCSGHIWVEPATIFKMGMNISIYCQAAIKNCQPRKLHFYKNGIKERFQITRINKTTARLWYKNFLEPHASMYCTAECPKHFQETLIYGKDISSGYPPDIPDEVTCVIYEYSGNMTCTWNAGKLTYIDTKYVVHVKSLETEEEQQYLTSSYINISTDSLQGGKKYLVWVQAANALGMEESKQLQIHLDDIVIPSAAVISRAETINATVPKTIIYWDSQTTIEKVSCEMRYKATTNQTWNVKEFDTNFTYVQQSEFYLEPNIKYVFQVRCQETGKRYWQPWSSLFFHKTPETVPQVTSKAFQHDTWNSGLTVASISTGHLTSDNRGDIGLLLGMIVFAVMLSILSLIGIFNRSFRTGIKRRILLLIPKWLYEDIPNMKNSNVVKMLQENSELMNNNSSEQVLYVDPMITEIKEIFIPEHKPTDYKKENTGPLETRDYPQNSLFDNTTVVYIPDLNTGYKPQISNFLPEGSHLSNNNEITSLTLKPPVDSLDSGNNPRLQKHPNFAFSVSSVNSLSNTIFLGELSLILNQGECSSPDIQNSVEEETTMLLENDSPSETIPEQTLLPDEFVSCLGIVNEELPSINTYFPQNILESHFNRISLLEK
Assay: P630-TMR NanoBRET binding assay, C115Y mutant
Conditions: for Mean NanoBRET binding signal (Figure 7 panel b): NL-IL23R (C115Y) + IL12Rβ1
Protocol: Data are mean ± SEM from five (C115Y) or four (wildtype) independent experiments conducted in duplicate or triplicate. Details on absolute number of data points included for each concentration are provided in the associated Source Data file.
Media was removed from white 96-well microplates containing transfected cells and replaced with fluoroprobe in the presence or absence of antagonist in 50 μL Hanks Balanced Salt Solution (HBSS) with 1 mg/mL BSA (Merck). After a 1-hour incubation at 37 °C without CO2, 5 μL of HBSS containing 77 μM furimizine was added to each well (final concentration 7 μM), the plate incubated for 5-minutes and the BRET signal measured using a PheraStar FS plate reader (BMG Labtech; data acquisition software version 5.41; MARS analysis software version 3.32) with a 450 ± 30 nm and >550 nm long pass filters. P630-TMR binding assays were normalised to a final DMSO concentration of 0.1%.

## COc1ccc(C[C@H](NC(=O)[C@H]2NC(=O)[C@H](CCC(N)=O)NC(=O)[C@H](Cc3c[nH]c4ccccc34)NC(=O)[C@H]([C@@H](C)O)NC(=O)[C@H](CC(N)=O)NC(=O)[C@@H](NC(C)=O)C(C)(C)SSC2(C)C)C(=O)N[C@@H](Cc2ccc3ccccc3c2)C(=O)NC(C)(C)C(=O)N[C@@H](CCC(=O)O)C(=O)N[C@@H](CC(N)=O)C(=O)N[C@@H](CC(N)=O)C(=O)N[C@@H](CCCCNC(=O)c2ccc3c(c2)C(=O)OC32c3ccc(N(C)C)cc3Oc3cc(N(C)C)ccc32)C(N)=O)cc1 [P630-TMR] (Ac-[Pen]NTWQ[Pen]Y(Me)[2Nal][Aib]ENNK(5TAMRA)-NH2; disulfide 1-6)
  Binding to C115Y mutant receptor: blocked specific binding
[P630-TMR] 0.8 nM
  Mean NanoBRET binding signal (Figure 7 panel b): -0.003437
[P630-TMR] 4 nM
  Mean NanoBRET binding signal (Figure 7 panel b): -0.009288
[P630-TMR] 20 nM
  Mean NanoBRET binding signal (Figure 7 panel b): -0.006407
[P630-TMR] 100 nM
  Mean NanoBRET binding signal (Figure 7 panel b): -0.004647
[P630-TMR] 500 nM
  Mean NanoBRET binding signal (Figure 7 panel b): -0.001312
[P630-TMR] 2000 nM
  Mean NanoBRET binding signal (Figure 7 panel b): 0.003535
